Measured values reported in ChEMBL document CHEMBL1201862, “PubChem BioAssay data set” (2004).
Calls of active or inactive are those of the source.

Key:
[1] = HepG2 cell cytotoxicity, dose response, cytotoxicity control for non-replicating M. tuberculosis project (AID 489018); type: functional; details: Mycobacterium tuberculosis
[2] = target: ATP-dependent molecular chaperone HSP82 (Candida albicans (strain WO-1) (Yeast), UniProt C4YTQ8); assay: loss of DOC-induced GRE-beta-galactosidase reporter signal, dose response, Hsp90 inhibitor project, S. cerevisiae, luminescence (AID 2400); type: functional, cell-based;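 further: beta-galactosidase luminescence from glucocorticoid response element reporter as proxy for Hsp90 function; inhibitor potency where signal loss means Hsp90 inhibition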
ATP-dependent molecular chaperone HSP82, sequence (C4YTQ8 whole entry): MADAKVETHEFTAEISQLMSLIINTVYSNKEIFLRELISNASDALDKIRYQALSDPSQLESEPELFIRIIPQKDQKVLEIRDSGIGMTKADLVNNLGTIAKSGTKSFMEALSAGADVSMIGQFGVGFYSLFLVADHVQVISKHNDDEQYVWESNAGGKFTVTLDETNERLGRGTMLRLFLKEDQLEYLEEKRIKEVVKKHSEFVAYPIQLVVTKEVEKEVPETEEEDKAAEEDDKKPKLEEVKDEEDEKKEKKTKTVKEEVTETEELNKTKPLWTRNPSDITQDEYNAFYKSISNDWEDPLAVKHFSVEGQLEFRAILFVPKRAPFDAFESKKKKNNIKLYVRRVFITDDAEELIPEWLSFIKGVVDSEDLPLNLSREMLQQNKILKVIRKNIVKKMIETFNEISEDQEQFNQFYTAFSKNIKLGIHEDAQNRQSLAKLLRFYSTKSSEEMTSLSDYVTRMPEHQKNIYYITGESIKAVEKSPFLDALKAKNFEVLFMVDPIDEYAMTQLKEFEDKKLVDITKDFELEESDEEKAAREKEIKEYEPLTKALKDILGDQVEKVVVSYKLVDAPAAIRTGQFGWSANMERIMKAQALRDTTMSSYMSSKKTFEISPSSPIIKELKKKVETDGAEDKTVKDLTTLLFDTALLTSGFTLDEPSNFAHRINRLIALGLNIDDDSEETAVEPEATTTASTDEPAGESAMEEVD

[3] = C. albicans growth with fluconazole, confirmation, fluorescence, retest (AID 2467); type: functional, cell-based
[4] = target: T1, Serine/threonine-protein phosphatase (Candida dubliniensis (strain CD36 / CBS 7987 / NCPF 3949 / NRRLY-17841) (Yeast), UniProt B9W6M3); assay: calcineurin pathway inhibitors in yeast reporter, dose response, S. cerevisiae, CDRE-lacZ, luminescence, secondary (AID 2388); type: functional, cell-based;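 further: yeast reporter cells carrying a calcineurin-responsive lacZ construct stimulated with calcium chloride; luminescent beta-galactosidase reporter signal in whole cells rather than isolated phosphatase activity; potency for inhibition where a drop in reporter signal means calcineurin blockade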
T1 sequence (B9W6M3 whole entry): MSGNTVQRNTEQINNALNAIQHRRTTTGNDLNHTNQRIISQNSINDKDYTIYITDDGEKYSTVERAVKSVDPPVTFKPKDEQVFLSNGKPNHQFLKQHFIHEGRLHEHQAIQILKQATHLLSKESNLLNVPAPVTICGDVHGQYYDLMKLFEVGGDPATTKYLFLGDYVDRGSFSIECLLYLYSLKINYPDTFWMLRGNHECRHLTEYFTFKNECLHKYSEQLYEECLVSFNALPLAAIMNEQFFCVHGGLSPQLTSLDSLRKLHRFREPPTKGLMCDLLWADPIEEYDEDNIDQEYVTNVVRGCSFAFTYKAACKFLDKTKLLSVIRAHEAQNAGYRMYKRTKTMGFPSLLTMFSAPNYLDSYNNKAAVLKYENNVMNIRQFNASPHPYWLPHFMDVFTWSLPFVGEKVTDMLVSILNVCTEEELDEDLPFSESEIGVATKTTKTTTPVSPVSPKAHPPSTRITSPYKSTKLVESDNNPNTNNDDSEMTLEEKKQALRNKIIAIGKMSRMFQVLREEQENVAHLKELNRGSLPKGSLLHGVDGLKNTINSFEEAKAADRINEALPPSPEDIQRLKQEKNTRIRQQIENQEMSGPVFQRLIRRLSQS

[5] = NIH-3T3 fibroblast cytotoxicity, dose response, cytotoxicity control, cell-based, fluorescence, Alamar Blue, secondary assay (AID 2327); type: functional;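 further: NIH-3T3 mouse fibroblasts cultured with fluconazole at 8 µg/mL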
[6] = THP-1 cell cytotoxicity, dose response, cytotoxicity control for non-replicating M. tuberculosis project (AID 489025); type: functional
[7] = microbe, parasite or virus in culture; type: functional; details: Mycobacterium tuberculosis
[8] = cells; type: functional
[9] = Vero E6 cell cytotoxicity, dose response, cytotoxicity control for non-replicating M. tuberculosis project, secondary assay (AID 492998); type: functional, VeroE6; details: Vero C1008
[10] = target: T2, Short transient receptor potential channel 4 (Mus musculus, UniProt Q9QUQ5); assay: mouse TRPC4 channel inhibitors, dose response, cell-based, HEK293 TRPC4/mu-opioid, Fluo-4 calcium (AID 434942); type: functional;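 further: potency of inhibitors blocking the TRPC4 calcium response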
T2 sequence (Q9QUQ5 whole entry): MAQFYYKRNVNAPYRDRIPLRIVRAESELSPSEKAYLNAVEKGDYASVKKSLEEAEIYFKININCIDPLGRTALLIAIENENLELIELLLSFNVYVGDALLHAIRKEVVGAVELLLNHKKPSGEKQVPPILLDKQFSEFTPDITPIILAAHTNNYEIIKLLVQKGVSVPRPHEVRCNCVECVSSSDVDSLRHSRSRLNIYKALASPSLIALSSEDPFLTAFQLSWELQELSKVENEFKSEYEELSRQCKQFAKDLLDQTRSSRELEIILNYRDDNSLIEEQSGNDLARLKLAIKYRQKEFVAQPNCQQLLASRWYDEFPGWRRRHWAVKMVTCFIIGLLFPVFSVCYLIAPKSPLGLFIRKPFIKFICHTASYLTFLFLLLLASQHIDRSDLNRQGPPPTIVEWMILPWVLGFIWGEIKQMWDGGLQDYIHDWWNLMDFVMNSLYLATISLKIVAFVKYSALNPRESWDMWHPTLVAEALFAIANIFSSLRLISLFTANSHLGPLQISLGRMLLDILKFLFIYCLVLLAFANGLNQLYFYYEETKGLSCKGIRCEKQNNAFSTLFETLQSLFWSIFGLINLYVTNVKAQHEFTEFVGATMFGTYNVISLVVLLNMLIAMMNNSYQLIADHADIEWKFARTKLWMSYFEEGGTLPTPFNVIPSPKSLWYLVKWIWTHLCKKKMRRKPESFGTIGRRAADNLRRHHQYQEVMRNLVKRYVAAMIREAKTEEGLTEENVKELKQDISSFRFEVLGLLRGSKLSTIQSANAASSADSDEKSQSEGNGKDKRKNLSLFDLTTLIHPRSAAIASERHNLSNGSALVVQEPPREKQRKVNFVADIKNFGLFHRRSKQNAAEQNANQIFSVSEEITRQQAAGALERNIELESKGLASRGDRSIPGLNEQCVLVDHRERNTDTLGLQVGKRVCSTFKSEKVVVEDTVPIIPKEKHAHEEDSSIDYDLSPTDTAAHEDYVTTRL

[11] = target: Heat shock protein HSP 90-alpha (Homo sapiens, UniProt P07900); type: functional, organism-based
[12] = control 3'UTR Renilla luciferase suppression, dose response, counter-screen for Shn3 inhibitor project, cell-based, Clone20-Shn3RL, cherry-picked (AID 624133); type: functional
[13] = tested on: INS1; assay: beta cell apoptosis inhibitors, cytokine rescue, dose response, luminescence, retest (AID 449756); type: functional, cell-based; details: Rattus norvegicus;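 further: cell death triggered by IL-1 beta plus TNF-alpha plus IFN-gamma mixture; protective hits raise ATP signal compared with cytokine alone wells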
[14] = cells; type: functional, cell-based
[15] = inhibitors of intracellular T. cruzi replication, confirmation, NIH3T3 host cells, beta-gal luminescence (AID 2044); type: functional, cell-based;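 further: intracellular parasites grown in NIH/3T3 mouse fibroblasts as host cells; luminescent beta-galactosidase reporter signal from transgenic T. cruzi replicating inside host cells; inhibitors lower the luminescence signal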
[16] = Luminescence Cell-Based Dose Response HTS to Identify Inhibitors of 5'UTR Stem-Loop Driven Prion Protein mRNA Translation in H4 Neuroglioblastoma Cells. [Related pubchem assays: 1827 (Project Summary), 1813 (Primary HTS)]; type: functional
[17] = inhibitors of SNCA 5'UTR-driven reporter translation, confirmation, H4 neuroglioma cells, luminescence (AID 1988); type: functional, cell-based
[18] = tested on: Streptococcus sp. 'group A'; assay: growth inhibition of control SK(-) GAS strain, dose response, counter-screen for streptokinase expression inhibitor project, luminescence, kanamycin, BacTiterGlo, confirmation (AID 1900); type: functional, organism-based
[19] = inhibitors of firefly luciferase expression or activity, dose response, H4 neuroglioma cells, luminescence (AID 1990); type: functional, cell-based
[20] = HepG2 cell cytotoxicity, dose response, cytotoxicity control for Shn3 inhibitor project, CellTiter-Glo, cherry-picked (AID 624134); type: functional, cell-based
[21] = Shn3 3'UTR reporter inhibitors, dose response, cell-based, Clone20 osteoblasts, firefly luciferase, cherry-picked (AID 624132); type: functional;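 further: firefly luciferase luminescence from reporter carrying the Shn3 3'UTR in osteoblasts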
[22] = cytotoxicity toward NIH3T3 fibroblasts, dose response, counter-screen, cell-based, ATP luminescence, mouse fibroblasts (AID 2010); type: functional;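 further: cells exposed to compound for about 90 hours before reading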
[23] = cells; type: functional, cell-based; remark: listed apart in the source
[24] = target: T3, Streptokinase A (Streptococcus pyogenes serotype M1, UniProt P10520); assay: S. pyogenes streptokinase expression inhibitors, potency, dose response, plasminogen activation absorbance, OD405 (AID 1914); type: functional, Streptococcus pyogenes M1 GAS;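 further: secreted streptokinase activity via plasminogen activation per viability signal from cell pellet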
T3 sequence (P10520 whole entry): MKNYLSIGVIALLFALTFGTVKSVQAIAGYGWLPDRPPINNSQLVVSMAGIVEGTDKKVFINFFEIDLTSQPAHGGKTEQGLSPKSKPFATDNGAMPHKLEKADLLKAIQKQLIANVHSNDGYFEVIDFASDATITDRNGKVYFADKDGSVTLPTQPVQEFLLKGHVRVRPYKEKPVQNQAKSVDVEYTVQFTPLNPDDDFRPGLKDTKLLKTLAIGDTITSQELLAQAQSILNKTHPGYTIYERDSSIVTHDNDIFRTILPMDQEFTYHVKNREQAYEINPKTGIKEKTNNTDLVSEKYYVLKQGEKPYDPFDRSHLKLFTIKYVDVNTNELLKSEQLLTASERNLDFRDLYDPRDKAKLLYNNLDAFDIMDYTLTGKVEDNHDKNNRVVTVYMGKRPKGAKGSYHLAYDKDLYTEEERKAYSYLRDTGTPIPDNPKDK

[25] = tested on: Streptococcus; assay: Group A Streptococcus viability loss, dose response, counter-screen for streptokinase expression inhibitor project, luminescence, BacTiterGlo (AID 1915); type: functional, organism-based;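 further: potency for reduction of bacterial viability or growth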
[26] = target: cAMP-dependent protein kinase catalytic subunit alpha (Homo sapiens, UniProt P17612); type: functional
[27] = target: Serine/threonine-protein kinase pim-1 (Homo sapiens, UniProt P11309); type: functional
Serine/threonine-protein kinase pim-1, sequence (P11309 whole entry): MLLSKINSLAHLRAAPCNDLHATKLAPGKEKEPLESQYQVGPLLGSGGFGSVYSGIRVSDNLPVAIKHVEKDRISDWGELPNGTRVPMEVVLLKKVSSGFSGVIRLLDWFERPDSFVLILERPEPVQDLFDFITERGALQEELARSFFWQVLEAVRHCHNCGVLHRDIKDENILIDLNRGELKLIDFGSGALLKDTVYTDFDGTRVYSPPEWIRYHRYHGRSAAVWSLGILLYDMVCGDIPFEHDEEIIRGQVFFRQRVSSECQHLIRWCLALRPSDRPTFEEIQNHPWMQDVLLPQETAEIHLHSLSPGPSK

[28] = target: Homeodomain-interacting protein kinase 2 (Homo sapiens, UniProt Q9H2X6); type: functional;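 further: measured within a kinome-wide kinase profiling panel, HIPK2 being one panel member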
Homeodomain-interacting protein kinase 2, sequence (Q9H2X6 whole entry): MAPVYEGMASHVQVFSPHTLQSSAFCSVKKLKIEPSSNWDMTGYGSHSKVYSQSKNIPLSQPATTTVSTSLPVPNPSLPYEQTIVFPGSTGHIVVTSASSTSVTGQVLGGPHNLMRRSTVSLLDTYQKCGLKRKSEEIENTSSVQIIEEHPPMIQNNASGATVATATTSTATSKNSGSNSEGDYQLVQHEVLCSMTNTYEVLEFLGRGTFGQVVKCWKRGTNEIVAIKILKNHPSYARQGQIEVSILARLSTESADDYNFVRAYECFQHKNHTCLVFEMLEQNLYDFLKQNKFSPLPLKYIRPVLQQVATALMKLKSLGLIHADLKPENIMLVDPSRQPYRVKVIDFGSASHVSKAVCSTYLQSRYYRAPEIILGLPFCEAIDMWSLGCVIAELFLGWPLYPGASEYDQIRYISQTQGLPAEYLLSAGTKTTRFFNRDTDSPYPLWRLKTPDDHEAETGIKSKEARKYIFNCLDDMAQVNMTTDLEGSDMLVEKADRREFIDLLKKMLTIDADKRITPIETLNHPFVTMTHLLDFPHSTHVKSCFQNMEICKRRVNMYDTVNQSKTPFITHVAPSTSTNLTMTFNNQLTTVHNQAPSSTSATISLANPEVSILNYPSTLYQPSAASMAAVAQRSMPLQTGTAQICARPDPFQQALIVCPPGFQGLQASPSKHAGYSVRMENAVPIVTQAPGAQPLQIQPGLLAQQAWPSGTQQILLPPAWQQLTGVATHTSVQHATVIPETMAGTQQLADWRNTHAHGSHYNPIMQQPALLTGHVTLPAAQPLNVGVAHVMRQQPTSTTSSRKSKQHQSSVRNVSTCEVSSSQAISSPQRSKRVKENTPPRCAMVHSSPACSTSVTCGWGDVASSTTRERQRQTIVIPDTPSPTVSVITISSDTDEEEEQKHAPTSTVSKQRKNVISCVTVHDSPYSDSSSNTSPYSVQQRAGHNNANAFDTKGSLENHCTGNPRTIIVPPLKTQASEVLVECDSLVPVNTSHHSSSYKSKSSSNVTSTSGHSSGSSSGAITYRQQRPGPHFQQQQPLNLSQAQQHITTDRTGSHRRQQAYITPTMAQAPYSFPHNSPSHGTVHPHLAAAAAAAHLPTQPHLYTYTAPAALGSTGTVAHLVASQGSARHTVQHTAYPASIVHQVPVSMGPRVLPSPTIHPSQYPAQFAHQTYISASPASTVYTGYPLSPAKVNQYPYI

[29] = target: T4, Interleukin-1 receptor-associated kinase 4 (Homo sapiens, UniProt Q9NWZ3); type: functional
T4 sequence (Q9NWZ3 whole entry): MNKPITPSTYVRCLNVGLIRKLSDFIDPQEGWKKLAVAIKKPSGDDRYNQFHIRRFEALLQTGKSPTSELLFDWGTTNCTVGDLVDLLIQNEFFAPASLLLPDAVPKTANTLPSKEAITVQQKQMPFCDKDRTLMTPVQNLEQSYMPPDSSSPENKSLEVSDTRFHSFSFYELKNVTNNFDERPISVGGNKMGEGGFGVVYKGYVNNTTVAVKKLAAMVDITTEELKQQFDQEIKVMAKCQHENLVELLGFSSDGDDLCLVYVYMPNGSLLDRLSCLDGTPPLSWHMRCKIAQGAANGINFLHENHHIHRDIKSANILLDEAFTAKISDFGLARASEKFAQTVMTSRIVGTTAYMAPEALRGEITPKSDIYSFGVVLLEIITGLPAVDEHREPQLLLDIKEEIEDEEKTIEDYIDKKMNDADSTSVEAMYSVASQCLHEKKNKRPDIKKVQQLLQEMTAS

[30] = target: Cell division cycle 7-related protein kinase (Homo sapiens, UniProt O00311); type: functional;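 further: value obtained from a kinome-wide kinase panel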
Cell division cycle 7-related protein kinase, sequence (O00311 whole entry): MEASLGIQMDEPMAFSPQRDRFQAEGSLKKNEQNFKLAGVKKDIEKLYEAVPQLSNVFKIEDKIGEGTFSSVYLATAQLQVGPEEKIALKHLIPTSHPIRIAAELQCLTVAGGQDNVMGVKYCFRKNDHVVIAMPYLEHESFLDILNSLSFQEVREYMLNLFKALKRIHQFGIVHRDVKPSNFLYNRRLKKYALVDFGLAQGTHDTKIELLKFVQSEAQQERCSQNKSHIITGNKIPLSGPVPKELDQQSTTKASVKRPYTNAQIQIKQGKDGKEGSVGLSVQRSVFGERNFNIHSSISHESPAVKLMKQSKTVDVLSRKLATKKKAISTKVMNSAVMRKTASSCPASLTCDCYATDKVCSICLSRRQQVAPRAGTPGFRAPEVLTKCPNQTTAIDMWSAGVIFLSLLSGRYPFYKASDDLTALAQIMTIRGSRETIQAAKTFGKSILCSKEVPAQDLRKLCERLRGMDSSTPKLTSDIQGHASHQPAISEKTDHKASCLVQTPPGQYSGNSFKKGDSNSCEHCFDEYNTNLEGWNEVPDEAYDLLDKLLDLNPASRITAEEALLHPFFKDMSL

[31] = target: Mitogen-activated protein kinase kinase kinase kinase 4 (Homo sapiens, UniProt O95819); type: functional
Mitogen-activated protein kinase kinase kinase kinase 4, sequence (O95819 whole entry): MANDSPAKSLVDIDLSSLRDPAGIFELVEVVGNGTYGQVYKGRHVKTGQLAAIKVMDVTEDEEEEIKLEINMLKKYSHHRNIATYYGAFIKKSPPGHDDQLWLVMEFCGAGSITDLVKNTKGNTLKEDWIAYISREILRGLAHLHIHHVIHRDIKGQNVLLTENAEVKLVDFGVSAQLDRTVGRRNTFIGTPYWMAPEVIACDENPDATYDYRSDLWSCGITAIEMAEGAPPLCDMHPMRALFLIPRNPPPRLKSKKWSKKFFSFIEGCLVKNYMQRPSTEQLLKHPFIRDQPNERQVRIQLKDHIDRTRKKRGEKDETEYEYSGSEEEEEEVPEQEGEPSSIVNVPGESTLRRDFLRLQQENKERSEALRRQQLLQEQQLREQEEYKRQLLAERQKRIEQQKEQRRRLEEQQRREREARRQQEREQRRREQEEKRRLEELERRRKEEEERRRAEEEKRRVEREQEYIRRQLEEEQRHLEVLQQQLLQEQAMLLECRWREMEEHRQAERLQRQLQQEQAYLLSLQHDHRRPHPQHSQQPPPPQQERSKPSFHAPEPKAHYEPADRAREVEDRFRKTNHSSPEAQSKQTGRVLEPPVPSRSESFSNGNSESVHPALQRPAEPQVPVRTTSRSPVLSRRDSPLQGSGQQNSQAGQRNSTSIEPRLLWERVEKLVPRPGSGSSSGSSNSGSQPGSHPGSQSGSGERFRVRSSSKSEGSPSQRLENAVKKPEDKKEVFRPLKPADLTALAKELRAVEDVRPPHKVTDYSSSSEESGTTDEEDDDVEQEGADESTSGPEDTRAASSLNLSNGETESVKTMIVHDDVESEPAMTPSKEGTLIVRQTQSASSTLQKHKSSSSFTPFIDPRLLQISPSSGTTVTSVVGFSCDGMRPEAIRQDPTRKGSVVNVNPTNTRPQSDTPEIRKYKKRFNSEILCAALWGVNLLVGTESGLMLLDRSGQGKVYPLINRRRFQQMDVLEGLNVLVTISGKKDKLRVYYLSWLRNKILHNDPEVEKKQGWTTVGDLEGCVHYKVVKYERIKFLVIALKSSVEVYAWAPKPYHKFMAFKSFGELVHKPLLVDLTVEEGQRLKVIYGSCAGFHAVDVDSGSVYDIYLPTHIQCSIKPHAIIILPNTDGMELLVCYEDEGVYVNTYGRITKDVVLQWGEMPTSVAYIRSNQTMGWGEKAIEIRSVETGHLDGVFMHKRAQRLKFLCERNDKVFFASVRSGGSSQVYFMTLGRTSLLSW

[32] = target: Dual specificity protein kinase CLK4 (Homo sapiens, UniProt Q9HAZ1); type: functional
Dual specificity protein kinase CLK4, sequence (Q9HAZ1 whole entry): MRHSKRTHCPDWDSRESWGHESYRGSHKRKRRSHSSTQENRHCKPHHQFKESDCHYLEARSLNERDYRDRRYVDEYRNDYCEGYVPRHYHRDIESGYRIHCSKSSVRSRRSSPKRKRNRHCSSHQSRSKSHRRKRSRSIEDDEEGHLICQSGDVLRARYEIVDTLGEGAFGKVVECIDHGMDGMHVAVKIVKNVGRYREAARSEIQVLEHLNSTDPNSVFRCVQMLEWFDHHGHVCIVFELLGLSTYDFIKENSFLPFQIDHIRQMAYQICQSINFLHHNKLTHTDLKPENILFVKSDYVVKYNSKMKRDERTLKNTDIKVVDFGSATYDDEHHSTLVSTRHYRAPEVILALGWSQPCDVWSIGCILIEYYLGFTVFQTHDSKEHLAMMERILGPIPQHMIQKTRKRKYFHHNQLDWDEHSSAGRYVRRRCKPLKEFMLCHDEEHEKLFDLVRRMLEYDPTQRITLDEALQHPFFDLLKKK

[33] = target: Glycogen synthase kinase-3 beta (Homo sapiens, UniProt P49841); type: functional;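 further: value comes from a broad kinome profiling panel, with GSK3B as the panel member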
Glycogen synthase kinase-3 beta, sequence (P49841 whole entry): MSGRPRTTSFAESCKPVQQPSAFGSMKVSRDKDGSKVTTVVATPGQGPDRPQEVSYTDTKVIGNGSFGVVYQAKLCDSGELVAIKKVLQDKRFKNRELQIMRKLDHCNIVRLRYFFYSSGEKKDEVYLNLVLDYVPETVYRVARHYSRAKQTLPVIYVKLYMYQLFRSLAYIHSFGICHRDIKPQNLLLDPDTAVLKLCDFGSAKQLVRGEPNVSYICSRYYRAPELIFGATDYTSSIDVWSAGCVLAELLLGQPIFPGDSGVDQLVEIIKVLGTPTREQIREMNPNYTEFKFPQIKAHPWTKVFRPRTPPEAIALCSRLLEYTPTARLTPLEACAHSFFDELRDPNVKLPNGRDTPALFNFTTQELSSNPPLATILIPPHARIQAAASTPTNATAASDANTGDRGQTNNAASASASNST

Row | SMILES | EC50 [2] | EC50 [3] | EC50 [4] | EC50 [5] | Ki [26] | Ki [27] | Ki [28] | Ki [29] | Ki [30] | Ki [32] | Ki [33] | further results
1 | O=c1c2ccc(Cl)cc2nc(-c2ccc([N+](=O)[O-])cc2)n1O | 44600 nM (active) | 430 nM (active) | > 180000 nM (inactive) | 99400 nM (active) |  |  |  |  |  |  |  | CC50 [1]: 16800 nM (active); CC50 [6]: 11800 nM (active); CC50 [7]: 21400 nM (active); IC50 [8]: 8170 nM (active); CC50 [9]: 12100 nM (active)
2 | CCOc1ccc(-c2ccc(NS(=O)(=O)c3ccc([N+](=O)[O-])cc3)cc2)nn1 | > 150000 nM (inactive) | 2360 nM (active) | > 180000 nM (inactive) | 50700 nM (active) |  |  |  |  |  |  |  | 
3 | CCCCCCCNC(=O)COc1ccc2c(c1)C(=O)CC(C)(C)O2 | > 160000 nM (inactive) | 2280 nM (active) | > 180000 nM (inactive) | > 160000 nM (inactive) |  |  |  |  |  |  |  | EC50 [10]: 944 nM (active)
4 | Oc1c(CN2CCN(c3ccc(F)cc3)CC2)cc(Cl)c2cccnc12 | > 160000 nM (inactive) | 693 nM (active) | > 180000 nM (inactive) | 26100 nM (active) |  |  |  |  |  |  |  | AC50 [11]: 7920 nM (active); AC50 [12]: 534 nM (active); AC50 [13]: 1270 nM (active); EC50 [14]: > 350000 nM (not active); EC50 [15]: 465 nM (active); EC50 [16]: 157 nM (active); EC50 [17]: 192 nM (active); EC50 [18]: 1560 nM (active); EC50 [19]: 200 nM (active); AC50 [20]: > 70000 nM (inactive); AC50 [21]: 1320 nM (active); EC50 [22]: 8200 nM (active); EC50 [23]: 69400 nM (active); EC50 [24]: > 150000 nM (not active); EC50 [25]: 10800 nM (active)
5 | Cc1cc(Br)ccc1OCC(=O)NNC(=O)C(=O)Nc1ccccc1 | > 150000 nM (inactive) | 526 nM (active) | > 180000 nM (inactive) | > 150000 nM (inactive) |  |  |  |  |  |  |  | IC50 [8]: 12200 nM (active)
6 | Fc1cccc(-c2c[nH]c3ncccc23)c1 |  |  |  |  | 2510 nM (active) | 7940 nM (active) | 1000 nM (active) | 2510 nM (active) | 63.1 nM (active) | 39.8 nM (active) | 2000 nM (active) | Ki [31]: 3.16 nM (active)
7 | C=CCNc1cc(-c2c[nH]c3ncccc23)cc(Cl)n1 |  |  |  |  | 398 nM (active) | 794 nM (active) | 50.1 nM (active) | 631 nM (active) | 0.794 nM (active) | 3.98 nM (active) | 100 nM (active) | 
8 | CCCCOc1cc(-c2ccncc2)cc2[nH]nc(N)c12 |  |  |  |  | 1260 nM (active) | 1580 nM (active) | 794 nM (active) | 631 nM (active) | 15.8 nM (active) | 10 nM (active) | 631 nM (active) | Ki [31]: 251 nM (active)
